Patent publication US20220323429A1, “PIMAVANSERIN FOR TREATING NEURODEGENERATIVE DISEASES” (ACADIA Pharmaceuticals Inc., priority 2019, published 2022)

Assay: Nasogastric Tube Compatibility Study, assay (HPLC)
Assay type: physicochemical
Protocol: Analytical HPLC Compatibility Study experiments (Example 2) were performed on Agilent 1200 Series, or equivalent; Waters XBridge C18 column, 5 μm 150×4.6 mm; mobile phase: Solvent A: 50 mM ammonium bicarbonate, pH 8.0; Solvent B: acetonitrile/methanol, 80:20 (v/v); Flow rate: 1 mL/min; Inj. Volume 60 μL; Autosampler Temp.: 5° C.; column temperature: 40° C.; the pooled limit of quantitation was 0.05% of 0.68 mg/mL; detection UV at 210 nm; sample concentration (as free base) assay: 0.034 mg/mL, impurity: 0.34 mg/mL; standard concentration (as free base) 0.034 mg/mL; PLOQ Std. 0.05% of 0.34 mg/mL; SST solution, 1% of 0.34 mg/mL (Impurities A, C, D, E, F, and G); diluent for standards 0.1N HCl; diluent for samples 0.1N HCl; run time, 40 min; gradient method: 0 min mobile phase A (90%) and mobile phase B (10%) to 30 min mobile phase A (0%), and mobile phase B (100%); then 30.1 min to 40 min mobile phase A (90%), mobile phase B (10%).
Three samples of pimavanserin in water (n=3) were prepared as follows. The content of one capsule was dropped into a 100 mL bottle, and the empty capsule shell was discarded. Approximately 40 mL of water was added into the bottle, and the bottle was swirled until the contents were disintegrated. Syringes were secured approximately 1 meter above the benchtop, and the plungers were removed. The Hydromer coating on the weighted top of the NG tube was activated by submerging the weight assembly in water for 10 seconds. The NG tube was flushed with 20 mL of water, and remaining water in the syringe and the NG tube was expelled with the help of the syringe plunger. The weighted tip of the NG tube was placed into 100 mL volumetric flasks on the benchtop.
For each sample, the aqueous dispersion was slowly poured into the syringe, allowing it to drain through the NG tube under gravity into the 100 mL collection volumetric flask. The original bottle containing the aqueous suspension of pimavanserin capsules was rinsed twice with 15 mL of water into the same syringe/NG tube system. The dispersion remaining in the syringe and NG tube was expelled with the help of the syringe plunger. Each flask was diluted to volume with 0.33N HCl (to make a final 0.1 N HCl concentration in the flask). The samples were sonicated for 15 minutes with intermediate shaking. A stir bar was added to the flask and the solution was stirred for 2 hours. An aliquot of each solution was centrifuged for 5 minutes at 10000 rom. The supernatant was transferred to a HPLC vial and injected for impurity analysis.
Samples were prepared by transferring the stock solution using a 2.0 mL volumetric pipet into a 20 mL volumetric flask, diluted to volume with 0.1 N HCl, and mixed well by inversion. An aliquot of each solution was centrifuged for 5 minutes at 10000 rpm. The supernatant was transferred to a HPLC vial and injected for analysis.
A “control” sample was prepared following the sample preparation procedure described above except it was not passed through a syringe/NG system. The content of one capsule was dropped into a 100 mL volumetric flask, and the empty capsule shell was discarded. Next 70 mL of water was added into the flask and swirled until the contents were completely disintegrated. The flask was diluted to volume with 0.33 N HCl (to make final 0.1N HCl concentration). The sample was sonicated for 15 minutes with intermediate shaking. A stir bar was dropped into the flask, and the solution was stirred for 2 hours. An aliquot was taken and centrifuged for 5 minutes at 10000 rpm. The supernatant was transferred to a HPLC vial and injected for impurity analysis.

Question: For CC(C)COc1ccc(CNC(=O)N(Cc2ccc(F)cc2)C2CCN(C)CC2)cc1 [Pimavanserin, N-(4-Fluorophenylmethyl)-N-(1-methylpiperidin-4-yl)-N′-(4-(2-methylpropyloxy)phenylmethyl)carbamide], which “Assay (%)” value (34 mg capsule in water passed through syringe/NG tube, sample N = 1) is on record?
Answer: 92.2%

Question: And the “Assay (%)” value (34 mg capsule in water passed through syringe/NG tube, sample N = 2)?
Answer: 92.7%

Question: And the “Assay (%)” value (34 mg capsule in water passed through syringe/NG tube, sample N = 3)?
Answer: 96.3%

Question: What about the “Assay (%)” value (NG Tube Control: capsule in water, not passed through syringe/NG system) of the same compound?
Answer: 91.5%

Question: And the “difference of assay between control sample and mean of 3 NG tube samples” value (aqueous dispersion of 34 mg capsule)?
Answer: ≤ 2%

Question: And the “effect of in vitro administration through a NG tube on stability” value (capsule contents added to different vehicles)?
Answer: no effect

Question: What about the “Assay Mean % (n = 6)” value (mean of NG tube samples) of the same compound?
Answer: 93.8%
